In the experiment the test system is arachidonic acid induced inflammatory response. The experiment can be described thus: arachidonic acid induced mouse ear inflammatory oedema test (mouse ear inflammatory model), oral dosing. The following applies: for inhibition in vivo at 3 mg/kg / inhibition in vivo at 10 mg/kg / inhibition in vivo at 30 mg/kg / inhibition in vivo at 1 mg/kg: Mus musculus, po; for inhibition (anti-inflammatory effect of the CO inhibitors): CO inhibitor alone at 1-10 mg/kg orally. In kind it is in vivo. The protocol:
According to the test method, groups of 10 mice (25-30 g each) were dosed orally with vehicle alone (a mixture of 0.5% hydroxypropylmethylcellulose, 0.1% polysorbate 80 and water), with the 5-LO inhibitor alone, with a CO-inhibitor alone, or with a combination of 5-LO and CO inhibitors. After a period of 1 hour arachidonic acid (1 mg in 10 microlitres of acetone) was applied topically to one ear of each mouse. After a further period of 1 hour the mice were killed and a disc-shaped portion (6 mm in diameter) was punched from each ear. Comparison of the weights of the ear-discs between the arachidonic acid treated and untreated ears allows the effect of each treatment to be determined. The effect of each test compound or combination of compounds is calculated as follows ('ear weight diff.' means the mean difference in the weights of the disc-shaped portions of ear punched from the arachidonic acid-treated ear compared to the untreated ear for each mouse):- [table]

The mark [1] stands for this setting: summary of Examples 1 to 10, variable.

Broadly, the inhibition in vivo is the drop in the measured response relative to a control, in per cent.

In the case of `COC1(c2cc(F)cc(Sc3ccc4c(c3)OCC(=O)N4C)c2)CCOCC1` [[2], 4-[5-fluoro-3-(4-methyl-3-oxo-2,3-dihydro-4H-1,4-benzoxazin-7-ylthio)phenyl]-4-methoxytetrahydropyran], the inhibition in vivo at 3 mg/kg (Ex 11, [2] 3 mg/kg orally alone) was determined as 15%. Also, the inhibition in vivo at 10 mg/kg (Ex 11, [2] 10 mg/kg orally alone) came to 22%. Besides, the inhibition in vivo at 30 mg/kg by setting is: (Ex 11, [2] 30 mg/kg orally alone) 34%; (Ex 12, [2] 30 mg/kg orally alone (I 0 mg/kg)) 27%.

For `COC1(c2cc(F)cc(Sc3ccc4c(c3)CCC(=O)N4C)c2)CCOCC1` [[4], 4-[5-fluoro-3-(1-methyl-2-oxo-1,2,3,4-tetrahydroquinolin-6-ylthio)phenyl]-4-methoxytetrahydropyran], the inhibition in vivo at 3 mg/kg (Ex 14, [4] 3 mg/kg orally alone, asterisk (*): not statistically significant) turned out to be 5%. Also, the inhibition in vivo at 10 mg/kg (Ex 14, [4] 10 mg/kg orally alone) turned out to be 21%. In addition, the inhibition in vivo at 30 mg/kg (Ex 14, [4] 30 mg/kg orally alone) turned out to be 22%.

For `COC1(c2ccc(Sc3ccc4c(c3)CCC(=O)N4C)s2)CCOCC1` [[3], 4-methoxy-4-[5-(1-methyl-2-oxo-1,2,3,4-tetrahydroquinolin-6-ylthio)thien-2-yl]tetrahydropyran], the inhibition in vivo at 3 mg/kg (Ex 13, [3] 3 mg/kg orally alone, asterisk (*): not statistically significant) was 17%. Under “Ex 13, [3] 10 mg/kg orally alone”, the inhibition in vivo at 10 mg/kg worked out at 15%. For the same compound, the inhibition in vivo at 30 mg/kg (Ex 13, [3] 30 mg/kg orally alone, asterisk (*): not statistically significant) was 20%.

For the compound `CC(C(=O)O)c1ccc(-c2ccccc2)c(F)c1` (stereo not shown) [F, flurbiprofen, reference compound], the inhibition in vivo at 3 mg/kg runs as follows: (Ex 6, F 3 mg/kg orally alone ([1] 0 mg/kg)) 14.6%; (Ex 7, F 3 mg/kg orally alone ([1] 0 mg/kg)) 7.6%. Besides, under setting [1], the “inhibition (anti-inflammatory effect of the CO inhibitors)” value lay within 0 to 55%.

On to `COc1ccc2c(c1)c(CC(=O)O)c(C)n2C(=O)c1ccc(Cl)cc1` [I, indomethacin, reference compound], for which the inhibition in vivo at 10 mg/kg is 16.9% (Ex 1, I 10 mg/kg orally alone ([1] 0 mg/kg)); 27.4% (Ex 2, I 10 mg/kg orally alone ([1] 0 mg/kg)); 55.3% (Ex 4, I 10 mg/kg orally alone); 55.6% (Ex 5, I 10 mg/kg orally alone); 30% (Ex 11, I 10 mg/kg orally alone ([2] 0 mg/kg)); 33% (Ex 12, I 10 mg/kg orally alone). The inhibition in vivo at 10 mg/kg (Ex 13, I 10 mg/kg orally alone ([3] 0 mg/kg), asterisk (*): not statistically significant) came out at 10%; the inhibition in vivo at 10 mg/kg (Ex 14, I 10 mg/kg orally alone ([4] 0 mg/kg), asterisk (*): not statistically significant) was -2.5%; the inhibition in vivo at 10 mg/kg (Ex 15, I 10 mg/kg orally alone ([5] 0 mg/kg)) stood at 27%. Further, the inhibition in vivo at 3 mg/kg was 12.8% (Ex 3, I 3 mg/kg orally alone ([1] 0 mg/kg)); 15.3% (Ex 4, I 3 mg/kg orally alone); 18.2% (Ex 5, I 3 mg/kg orally alone); 27% (Ex 12, I 3 mg/kg orally alone). Moreover, where the note is “Ex 12, I 1 mg/kg orally alone”, the inhibition in vivo at 1 mg/kg worked out at 13%. Moreover, the “inhibition (anti-inflammatory effect of the CO inhibitors)” value under setting [1] fell in the range of 0 to 55%.

`COC1(c2cc(F)cc(OCc3ccc4c(ccc(=O)n4C)c3)c2)CCOCC1` [[1], 6-[(3-fluoro-5-[4-methoxy-3,4,5,6-tetrahydro-2H-pyran-4-yl]phenoxy)methyl]-1-methyl-2-quinolone]: the inhibition in vivo at 1 mg/kg turned out to be 14.6% (Ex 1, [1] 1 mg/kg orally alone); 16.7% (Ex 6, [1] 1 mg/kg orally alone); 16.2% (Ex 7, [1] 1 mg/kg orally alone). Further, the inhibition in vivo at 3 mg/kg by setting is: (Ex 1, [1] 3 mg/kg orally alone) 19.1%; (Ex 2, [1] 3 mg/kg orally alone) 9.5%; (Ex 3, [1] 3 mg/kg orally alone) 0%; (Ex 6, [1] 3 mg/kg orally alone) 20.8%; (Ex 7, [1] 3 mg/kg orally alone) 13.3%. The inhibition in vivo at 10 mg/kg runs as follows: (Ex 1, [1] 10 mg/kg orally alone) 47.2%; (Ex 2, [1] 10 mg/kg orally alone) 0.5%; (Ex 3, [1] 10 mg/kg orally alone) 15.6%; (Ex 4, [1] 10 mg/kg orally alone (I 0 mg/kg)) 44.4%; (Ex 5, [1] 10 mg/kg orally alone (I 0 mg/kg)) 15.2%; (Ex 6, [1] 10 mg/kg orally alone) 15.6%. The inhibition in vivo at 10 mg/kg by setting is: (Ex 7, [1] 10 mg/kg orally alone) 11.4%; (Ex 8, [1] 10 mg/kg orally alone (D 0 mg/kg)) 12.5%; (Ex 9, [1] 10 mg/kg orally alone (D 0 mg/kg)) 25.7%; (Ex 10, [1] 10 mg/kg orally alone (D 0 mg/kg)) 3.2%. Moreover, the “inhibition (anti-inflammatory effect of the 5-LO inhibitor)” value (summary of Examples 1 to 10, 5-LO inhibitor alone at 1-10 mg/kg orally, variable) is 0 to 47%.

As to `COC1(c2cc(F)cc(Sc3ccc(C(F)(F)c4ccc(F)cc4)cc3)c2)CCOCC1` [[5], 4-[5-fluoro-3-(4-(4-fluoro-alpha,alpha-difluorobenzyl)phenylthio)phenyl]-4-methoxytetrahydropyran], the inhibition in vivo at 3 mg/kg (Ex 15, [5] 3 mg/kg orally alone, asterisk (*): not statistically significant) came to 11%. For the same compound, the inhibition in vivo at 10 mg/kg (Ex 15, [5] 10 mg/kg orally alone, asterisk (*): not statistically significant) amounted to 16%. Moreover, the inhibition in vivo at 30 mg/kg (Ex 15, [5] 30 mg/kg orally alone, asterisk (*): not statistically significant) was found to be 17%.

Consider `O=C(O)Cc1ccccc1Nc1c(Cl)cccc1Cl` [D, diclofenac, reference compound], for which the inhibition in vivo at 3 mg/kg was 11.1% (Ex 8, D 3 mg/kg orally alone) and 5.9% (Ex 9, D 3 mg/kg orally alone). The inhibition in vivo at 30 mg/kg is, setting by setting: (Ex 8, D 30 mg/kg orally alone) 11.4%; (Ex 9, D 30 mg/kg orally alone) 17.8%; (Ex 10, D 30 mg/kg orally alone) 10.5%. Moreover, the inhibition in vivo at 10 mg/kg by setting is: (Ex 9, D 10 mg/kg orally alone) 4.9%; (Ex 10, D 10 mg/kg orally alone) 7.4%. For the same compound, under setting [1], the “inhibition (anti-inflammatory effect of the CO inhibitors)” value is reported as 0 to 55%.

(Values after patent EP0485111A2, “The use of lipoxygenase and cyclooxygenase inhibitors as synergistic agents” (ZENECA LIMITED, priority 1990, dated 1992).)
